The source of these data is patent publication US11472791B2 (Incyte Corporation, priority 2019, dated 2022).

As usually defined, the IC50 is the concentration that inhibits the measured activity by half. Higher therefore signals weaker potency.

A value given as a limit tells only on which side of the number the result lay.

The test deals with CDK2/Cyclin E1 (Homo sapiens (Human), UniProt P24941). As to the kind of experiment: CDK2/Cyclin E1 HTRF enzyme activity assay. The note with it: 1 mM ATP. The format is biochemical. The method, then: Assays are conducted in white 384-well polystyrene plates in a final reaction volume of 8 μL. […] HTRF signals are read after 1 hour at room temperature on a PHERAstar FS plate reader (BMG Labtech). Data is analyzed with IDBS XLFit and GraphPad Prism 5.0 software using a three or four parameter dose response curve to determine IC50 for each compound.
In the case of `Cc1cc(CN2CCN(C)C(=O)C2)ccc1-n1cc(-c2nc(NC3CCN(S(=O)(=O)c4cn(C)cn4)CC3)ncc2C(F)(F)F)cn1` [Example 237, 1-Methyl-4-(3-methyl-4-(4-(2-((1-((1-methyl-1H-imidazol-4-yl)sulfonyl)piperidin-4-yl)amino)-5-(trifluoromethyl)pyrimidin-4-yl)-1H-pyrazol-1-yl)benzyl)piperazin-2-one], the IC50 is less than 50 nM. As for `Cc1nc(CNC(C)C)ccc1-n1cc(-c2nc(NC3CCN(S(=O)(=O)c4cn(C)cn4)CC3)ncc2C#N)cn1` [Example 151, 4-(1-(6-((Isopropylamino)methyl)-2-methylpyridin-3-yl)-1H-pyrazol-4-yl)-2-((1-((1-methyl-1H-imidazol-4-yl)sulfonyl)piperidin-4-yl)amino)pyrimidine-5-carbonitrile], the figure is less than 50 nM. The value for `CCNCc1ccc(-n2cc(-c3nc(NC4CCN(S(C)(=O)=O)CC4)ncc3C#N)cn2)c(Cl)c1` [Example 115, 4-(1-(2-Chloro-4-((ethylamino)methyl)phenyl)-1H-pyrazol-4-yl)-2-((1-(methylsulfonyl)piperidin-4-yl)amino)pyrimidine-5-carbonitrile] was less than 50 nM; that for `CC(=O)N1CCN(Cc2ccc(-n3cc(-c4nc(NC5CCN(S(=O)(=O)c6cn(C)cn6)CC5)ncc4C(F)(F)F)cn3)c(C)c2)CC1` [Example 105, 1-(4-(3-Methyl-4-(4-(2-((1-((1-methyl-1H-imidazol-4-yl)sulfonyl)piperidin-4-yl)amino)-5-(trifluoromethyl)pyrimidin-4-yl)-1H-pyrazol-1-yl)benzyl)piperazin-1-yl)ethan-1-one] was less than 50 nM; that for `CCS(=O)(=O)N1CCC(Nc2ncc(C#N)c(-c3cnn(-c4ccc(CN[C@H]5C[C@](C)(O)C5)cc4Cl)c3)n2)CC1` [Example 193, 4-(1-(2-Chloro-4-((((1r,3r)-3-hydroxy-3-methylcyclobutyl)amino)methyl)phenyl)-1H-pyrazol-4-yl)-2-((1-(ethylsulfonyl)piperidin-4-yl)amino)pyrimidine-5-carbonitrile] was less than 50 nM.

Take `[2H]C([2H])([2H])NCc1ccc(-n2cc(-c3nc(NC4CCN(S(=O)(=O)CC)CC4)ncc3C#N)cn2)c(Cl)c1` [Example 139, 4-(1-(2-Chloro-4-(((methyl-d3)amino)methyl)phenyl)-1H-pyrazol-4-yl)-2((1-(ethylsulfonyl)piperidin-4-yl)amino)pyrimidine-5-carbonitrile]: the IC50 is less than 50 nM. `CC(C)(O)Cn1cc(-c2nc(NC3CCN(S(=O)(=O)CCCN4CCCCC4)CC3)ncc2C(F)(F)F)cn1` [Example 67, 2-Methyl-1-(4-(2-((1-((3-(piperidin-1-yl)propyl)sulfonyl)piperidin-4-yl)amino)-5-(trifluoromethyl)pyrimidin-4-yl)-1H-pyrazol-1-yl)propan-2-ol] returned an IC50 of less than 50 nM. The value for `[2H]C([2H])([2H])NCc1ccc(-n2cc(-c3nc(N[C@H]4CCN(S(=O)(=O)c5cn(C)cn5)C[C@H]4C)ncc3C#N)cn2)c(Cl)c1` [Example 148, 4-(1-(2-Chloro-4-(((methyl-d3)amino)methyl)phenyl)-1H-pyrazol-4-yl)-2-(((3R,4S)-3-methyl-1-((1-methyl-1H-imidazol-4-yl)sulfonyl)piperidin-4-yl)amino)pyrimidine-5-carbonitrile] was less than 50 nM; that for `Cc1nc(CNC(C)(C)C)ccc1-n1cc(-c2nc(NC3CCN(S(=O)(=O)C4CC4)CC3)ncc2C#N)cn1` [Example 277, 4-(1-(6-((tert-Butylamino)methyl)-2-methylpyridin-3-yl)-1H-pyrazol-4-yl)-2-((1-(cyclopropylsulfonyl)piperidin-4-yl)amino)pyrimidine-5-carbonitrile] was less than 50 nM. In turn, `[2H]C([2H])([2H])NCc1ccc(-n2cc(-c3nc(NC4CCN(S(=O)(=O)c5ccn(C)n5)CC4)ncc3C#N)cn2)c(Cl)c1` [Example 142, 4-(1-(2-Chloro-4-(((methyl-d3)amino)methyl)phenyl)-1H-pyrazol-4-yl)-2-((1-((1-methyl-1H-pyrazol-3-yl)sulfonyl)piperidin-4-yl)amino)pyrimidine-5-carbonitrile] showed an IC50 of less than 50 nM. As for `Cc1cc(CN2CCNCC2)ccc1-n1cc(-c2nc(NC3CCN(S(=O)(=O)c4cn(C)cn4)CC3)ncc2C(F)(F)F)cn1` [Example 228, N-(1-((1-Methyl-1H-imidazol-4-yl)sulfonyl)piperidin-4-yl)-4-(1-(2-methyl-4-(piperazin-1-ylmethyl)phenyl)-1H-pyrazol-4-yl)-5-(trifluoromethyl)pyrimidin-2-amine], the figure is less than 50 nM; as for `N#Cc1cnc(N[C@H]2CCN(S(=O)(=O)C3CC3)C[C@H]2F)nc1-c1cnn(-c2ccc(CNCC3(O)CC3)cc2Cl)c1` [Example 156, 4-(1-(2-Chloro-4-((((1-hydroxycyclopropyl)methyl)amino)methyl)phenyl)-1H-pyrazol-4-yl)-2-(((3R,4S)-1-(cyclopropylsulfonyl)-3-fluoropiperidin-4-yl)amino)pyrimidine-5-carbonitrile], less than 50 nM. As for `[2H]C([2H])([2H])NCc1ccc(-n2cc(-c3nc(NC4CCN(S(=O)(=O)CC)CC4)ncc3C(F)(F)F)cn2)c(C)c1` [Example 129, N-(1-(Ethylsulfonyl)piperidin-4-yl)-4-(1-(2-methyl-4-(((methyl-d3)amino)methyl)phenyl)-1H-pyrazol-4-yl)-5-(trifluoromethyl)pyrimidin-2-amine], the figure is less than 50 nM; as for `CC(C)(O)Cn1cc(-c2nc(NC3CCN(S(=O)(=O)CCO)CC3)ncc2C(F)(F)F)cn1` [Example 227, 1-(4-(2-((1-((2-Hydroxyethyl)sulfonyl)piperidin-4-yl)amino)-5-(trifluoromethyl)pyrimidin-4-yl)-1H-pyrazol-1-yl)-2-methylpropan-2-ol], less than 50 nM. The value for `CS(=O)(=O)N1CC(Nc2ncc(C(F)(F)F)c(-c3cnn(C4CCOCC4)c3)n2)C1` [Example 20, N-(1-(Methylsulfonyl)azetidin-3-yl)-4-(1-(tetrahydro-2H-pyran-4-yl)-1H-pyrazol-4-yl)-5-(trifluoromethyl)pyrimidin-2-amine] was 500 to 1000 nM; that for `CCNCc1ccc(-n2cc(-c3nc(NC4CCN(S(=O)(=O)c5cn(C)cn5)CC4)ncc3C#N)cn2)c(C)n1` [Example 127, 4-(1-(6-((Ethylamino)methyl)-2-methylpyridin-3-yl)-1H-pyrazol-4-yl)-2-((1-((1-methyl-1H-imidazol-4-yl)sulfonyl)piperidin-4-yl)amino)pyrimidine-5-carbonitrile] was less than 50 nM.

The compound `CN(C)C1CCCCC1NCc1ccc(-n2cc(-c3nc(NC4CCN(S(C)(=O)=O)CC4)ncc3C#N)cn2)c(Cl)c1` (stereo not drawn) [Example 184, 4-(1-(2-Chloro-4-(((2-(dimethylamino)cyclohexyl)amino)methyl)phenyl)-1H-pyrazol-4-yl)-2-((1-(methylsulfonyl)piperidin-4-yl)amino)pyrimidine-5-carbonitrile] gave an IC50 of less than 50 nM.

`[2H]C([2H])([2H])NCc1ccc(-n2cc(-c3nc(N[C@H]4CCN(S(=O)(=O)c5cn(C)cn5)C[C@H]4C)ncc3C#N)cn2)c(C)n1` [Example 150, 2-(((3R,4S)-3-Methyl-1-((1-methyl-1H-imidazol-4-yl)sulfonyl)piperidin-4-yl)amino)-4-(1-(2-methyl-6-(((methyl-d3)amino)methyl)pyridin-3-yl)-1H-pyrazol-4-yl)pyrimidine-5-carbonitrile] displayed a half-inhibitory concentration (IC50) of less than 50 nM.
